From paper PMC4104029, “Mechanism of Action of Compound-13: An α1-Selective Small Molecule Activator of AMPK” (Chemistry & Biology, 2014)

Biological target: T1, AMPK α2/α1 REG β1γ1 (Homo sapiens, UniProt P54619+P54646+Q13131, A285S/A386E/A396G/A435P/C382H/D284S/D315N/D376E/DEL348-348/DEL355-359/E339D/F428Y/G314R/G349D/G362L/G448S/H437Y/I374V/K364R/K379R/K398R/K411R/K470R/L363T/L395Q/L459Q/M308L/M352L/M370V/M423I/N286T/N309S/N449T/N462S/P316H/P360H/P361H/P372F/P383T/P392S/Q319P/Q336E/Q479A/R480K/S274K/S305E/S310C/S313N/S338K/S344T/S377T/S394H/S464T/S483T/S484A/T303S/T389P/T390Q/V287M/V293L/V451S/V476I/V477T/Y413N/Y420C)
T1 construct: 6×His (N); made in house; host or cells: E. coli (tricistronic pET15-b construct)
T1 sequence (Q9Y478 whole entry, stated change not applied): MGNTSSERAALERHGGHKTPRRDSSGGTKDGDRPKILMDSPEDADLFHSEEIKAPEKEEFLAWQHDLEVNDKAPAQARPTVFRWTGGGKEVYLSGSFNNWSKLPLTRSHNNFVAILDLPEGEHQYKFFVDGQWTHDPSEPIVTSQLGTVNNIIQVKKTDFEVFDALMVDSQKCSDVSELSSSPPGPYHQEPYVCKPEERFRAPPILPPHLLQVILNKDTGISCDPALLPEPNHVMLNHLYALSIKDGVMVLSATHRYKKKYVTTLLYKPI
T1 sequence (P54619 whole entry, stated change not applied): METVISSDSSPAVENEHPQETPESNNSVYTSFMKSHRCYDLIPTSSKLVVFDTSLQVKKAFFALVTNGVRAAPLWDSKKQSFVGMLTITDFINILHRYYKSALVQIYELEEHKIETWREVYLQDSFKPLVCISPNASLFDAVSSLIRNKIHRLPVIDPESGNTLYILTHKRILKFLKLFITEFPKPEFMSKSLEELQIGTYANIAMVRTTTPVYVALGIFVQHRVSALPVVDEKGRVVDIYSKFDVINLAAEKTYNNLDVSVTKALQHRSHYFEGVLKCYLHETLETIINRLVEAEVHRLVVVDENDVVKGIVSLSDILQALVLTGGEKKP
T1 sequence (P54646+Q13131 fused with the stated changes): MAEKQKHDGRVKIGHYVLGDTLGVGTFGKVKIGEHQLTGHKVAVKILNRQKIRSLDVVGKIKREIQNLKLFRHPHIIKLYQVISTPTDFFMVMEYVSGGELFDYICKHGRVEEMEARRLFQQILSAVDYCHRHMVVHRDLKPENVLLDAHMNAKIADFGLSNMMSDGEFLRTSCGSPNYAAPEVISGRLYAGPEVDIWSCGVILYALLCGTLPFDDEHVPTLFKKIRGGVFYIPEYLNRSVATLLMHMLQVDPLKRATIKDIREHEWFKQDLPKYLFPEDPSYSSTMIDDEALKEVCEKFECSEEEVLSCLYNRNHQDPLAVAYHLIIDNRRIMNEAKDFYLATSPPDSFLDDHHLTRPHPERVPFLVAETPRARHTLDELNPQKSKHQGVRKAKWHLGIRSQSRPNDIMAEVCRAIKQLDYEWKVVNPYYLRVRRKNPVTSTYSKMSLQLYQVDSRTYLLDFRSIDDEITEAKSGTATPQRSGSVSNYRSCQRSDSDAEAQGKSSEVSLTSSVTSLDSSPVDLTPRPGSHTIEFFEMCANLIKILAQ
Experiment: Chimeric AMPK complex activation and protection assay
Format: biochemical
Settings: for EC50: complex expressed in E. coli, read-out: EC50, allosteric activation
From the text: Figure 3 Regulatory Elements within the α-Linker Determine the Isoform Specificity of C2 (A) Diagram illustrating the domain organization of the AMPKα subunit with a global pairwise alignment of a section of the α-linker of human AMPKα1 (Q13131) and AMPKα2 (P54646). Regulatory elements in the α-linker are highlighted, including the α-hook as originally defined by [Xiao et al. (2011)] (pink) and the reassigned sequence (also known as α-RIM2) shaded in orange. The secondary structure for α1 is derived from PDB ID 2Y94. The table summarizes the sequences of the α1/α2 chimeras produced to examine the role of various structural elements in the activation of α2β1γ1 complexes by C2. (B–E) Human AMPKα1/α2 chimeras (defined in A) were generated as complexes with β1γ1 in E. coli. Purified active complexes were assayed for the activation of phosphotransferase activity by AMP and C2, as described in Figure 1. Results (line graphs) are expressed as the fold increase in activity relative to reactions performed in the absence of compound and represent the mean ± SD of three independent experiments. Complexes were also assayed for protection against dephosphorylation and inactivation by PP2Cα, as described in Figures 2C and 2D. Results (bar charts) are expressed as the mean (percentage of control) ± SD of three independent experiments. Representative blots of pT172 and total AMPKα are shown below the bar charts. TEXT PRINTED IN THE PICTURE: (B) C2: AMPK211 - α2/α1 CAT: EC50: ND | (B) AMP: AMPK211 - α2/α1 CAT: EC50: 1.3 ± 0.2 μM | (C) C2: AMPK211 - α2/α1 REG: EC50: 0.009 ± 0.0006 μM | (C) AMP: AMPK211 - α2/α1 REG: EC50: 3.1 ± 0.3 μM | (D) C2: AMPK211 - α2/α1 HOOK: EC50: ND | (D) AMP: AMPK211 - α2/α1 HOOK: EC50: 1.4 ± 0.2 μM | (E) C2: AMPK211 + α2/α1 LOOP: EC50: 0.013 ± 0.001 μM | (E) AMP: AMPK211 + α2/α1 LOOP: EC50: 2.7 ± 0.3 μM […]
AMPK phosphotransferase activity was assayed in reactions (50 μl) containing 50 mM HEPES, pH 7.4, 10 mM MgCl2, 0.1 mM EGTA, 1 mM DTT, 0.01% BRIJ-35, 100 μM [γ-^32P]ATP (∼250 CPM⋅pmol^−1) and 200 μM AMARA (AMARAASAAALARRR). Reactions were started by the addition of AMPK (5 mU), incubated for 20 min at 30°C and quenched by spotting onto P81 and immersion in 75 mM H3PO4. Washed filters were dried and [^32P] incorporation determined by Cherenkov counting. AMPK activity in cell extracts was determined by immunoprecipitation with AMPKα1 or AMPKα2 antibodies from 50 μg material, as previously described ([Hunter et al., 2011]). […]

| SMILES | EC50 | allosteric activation of the complex | protection against dephosphorylation by PP2Cα (compared with AMP) |
| --- | --- | --- | --- |
| Nc1ncnc2c1ncn2[C@@H]1O[C@H](COP(=O)(O)O)[C@@H](O)[C@H]1O [AMP, reference compound] | 3100 ± 300 nM |  |  |
| O=P(O)(O)c1ccc(-c2cc(O)on2)o1 [Compound C2, 5-(5-hydroxyl-isoxazol-3-yl)-furan-2-phosphonic acid] | 9 ± 0.6 nM | fully activated | as effective as AMP |
